Experimental data published in ChEMBL document CHEMBL5725787, “Fused pyrimidine compound or salt thereof” (2017).

Biological target: Tyrosine-protein kinase BTK (Homo sapiens, UniProt Q06187)
Assay: BTK Inhibitory Activity: With regard to the setting of the conditions for a method for measuring the inhibitory activity of a compound against BTK kinase activity in vitro, it is described in the consumable reagent supplies price list for LabChip (registered trademark) series of PerkinElmer, Inc. that FL-PEPTIDE 2 corresponds to a substrate peptide for the measurement of BTK kinase activity. Therefore, FL-PEPTIDE 2 was used as a substrate. The purified recombinant human BTK protein used in the test was purchased from Carna Biosciences, Inc.With regard to the measurement of the inhibitory activity of the compounds, firstly, the compounds of the present invention were diluted stepwise with dimethyl sulfoxide (DMSO). Subsequently, BTK protein, a substrate peptide (final concentration was 1 μM), magnesium chloride (final concentration was 10 mM), ATP (final concentration was 45 μM), and a DMSO solution of the compounds of the present invention (final concentration of DMSO was 5%) were added to a buffer solution for kinase reaction (20 mM HEPES (pH 7.5), 2 mM dithiotheitol, 0.01% Triton X-100), and after the solution was incubated for 40 minutes at 25° C., a kinase reaction was carried out. The reaction was terminated by adding EDTA thereto in order to obtain a final concentration of 30 mM. […]

Tyrosine-protein kinase BTK, sequence (Q06187 whole entry): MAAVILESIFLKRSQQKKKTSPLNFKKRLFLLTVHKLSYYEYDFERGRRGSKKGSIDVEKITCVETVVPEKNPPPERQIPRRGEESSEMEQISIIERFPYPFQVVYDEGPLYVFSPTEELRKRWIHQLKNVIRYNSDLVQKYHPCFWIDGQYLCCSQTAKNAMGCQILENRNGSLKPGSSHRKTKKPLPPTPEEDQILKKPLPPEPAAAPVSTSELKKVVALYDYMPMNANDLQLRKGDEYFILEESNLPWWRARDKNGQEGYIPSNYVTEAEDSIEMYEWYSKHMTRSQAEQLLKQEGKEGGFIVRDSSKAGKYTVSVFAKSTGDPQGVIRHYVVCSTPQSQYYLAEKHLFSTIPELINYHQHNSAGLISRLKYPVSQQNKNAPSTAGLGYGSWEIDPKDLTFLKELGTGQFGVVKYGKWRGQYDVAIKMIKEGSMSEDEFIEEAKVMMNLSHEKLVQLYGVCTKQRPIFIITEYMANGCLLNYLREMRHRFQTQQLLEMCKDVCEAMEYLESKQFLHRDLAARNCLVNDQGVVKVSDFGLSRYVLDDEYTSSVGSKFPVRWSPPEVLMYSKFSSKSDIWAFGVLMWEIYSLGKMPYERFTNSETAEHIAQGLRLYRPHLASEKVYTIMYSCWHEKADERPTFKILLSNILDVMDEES

IC50: 0.442 nM
Structure (SMILES): C=CC(=O)N1CC[C@@H](n2nc(C(=O)Nc3nc4cc(-c5ccccc5)ccc4o3)c3c(N)ncnc32)C1
